Experimental data taken from US20130096067A1, “DROSOPHILA TUMOR STEM CELL MODEL AND USES THEREOF” (priority 2011, published 2013).
Like-named read-outs stand apart in the source and are kept apart here.

System: Raf-1^gof intestinal tumors
Conditions: for Log2 (fold) of luciferase activity relative to DMSO controls / Fold (luciferase activity relative to DMSO controls): ICCB compounds fed in vials to flies with one-day old Raf-1^gof tumors
[1] = assessed three days later, averaged from multiple wells
[2] = screen of 480 ICCB compounds in vials, compounds fed to flies with one-day old Raf-1^gof tumors, assessed three days later, esg-Gal4 luciferase
[3] = screen of 480 ICCB compounds in vials, compounds fed to flies with one-day old Raf-1^gof tumors, assessed three days later, esg-Gal4 luciferase, averaged from multiple wells
Wherever Fold (luciferase activity relative to DMSO controls) is given: test concentration or dose not given here.
Wherever Fold (luciferase activity, fold difference relative to DMSO controls) is given: test concentration or dose not given here.
Wherever Log2 (fold) (luciferase activity, log2 of the fold difference relative to DMSO controls) is given: test concentration or dose not given here.
Wherever Log2 (fold) of luciferase activity relative to DMSO controls is given: test concentration or dose not given here.

Row | Compound | Log2 (fold) of luciferase activity relative to DMSO controls (assessed three days later) | Fold (luciferase activity relative to DMSO controls) [1] [fold] | Log2 (fold) (luciferase activity, log2 of the fold difference relative to DMSO controls) [2] | Fold (luciferase activity, fold difference relative to DMSO controls) [3] | further results
1 | CCCCCCCCCCOCCC(=O)O [4-OXATETRADECANOIC ACID] | 0.004 | 1.003 |  |  | 
2 | CCCCC[C@H](O)/C=C/[C@@H]1[C@@H](CC(=O)CCCCC(=O)O)[C@@H](O)C[C@H]1O [6-KETO-PROSTAGLANDIN F1a] |  |  | −0.435 | 0.740 | 
3 | Cn1cnc2c(NCc3ccccc3)nc(NCCO)nc21 [olomoucine] |  |  | −0.406 | 0.755 | 
4 | CCCCC[C@H](O)/C=C/[C@@H]1[C@@H](C/C=C\CCCC(=O)O)[C@@H](O)C[C@H]1O [PROSTAGLANDIN F2a] |  |  | −0.450 | 0.732 | 
5 | CCCCCCCCCCCCCCC(F)C(=O)O (stereo not shown) [2-FLUOROPALMITIC ACID] | 0.051 | 1.036 |  |  | 
6 | CCCCC/C=C\C/C=C\C/C=C\C/C=C\CCCC(N)=O [ARACHIDONAMIDE] | −0.069 | 0.954 |  |  | 
7 | NCCc1c[nH]c2ccc(O)cc12 [serotonin] | 0.266 | 1.203 |  |  | 
8 | Cl.NC(=S)NCCCC(N)C(=O)O [Thiocitrulline [L-Thiocitrulline HCl]] | −0.170 | 0.889 |  |  | 
9 | CCCCC/C=C\C/C=C\C/C=C\C/C=C\CCCC(=O)NCCO [ANANDAMIDE (20:4, n-6)] | 0.054 | 1.038 |  |  | 
10 | C/C=C1\[C@H]2C=C(C)C[C@]1(N)c1ccc(=O)[nH]c1C2 [Huperzine A [(−)-Huperzine A]] |  |  | −0.641 | 0.641 | 
11 | CCCCC[C@H](O)/C=C/C=C\C=C\C=C\[C@@H](O)[C@@H](O)CCCC(=O)O [LIPOXIN A4] | 0.046 | 1.033 |  |  | 
12 | CC1=C(/C=C/C(C)=C/C=C/C(C)=C/C(=O)Nc2ccc(O)cc2)C(C)(C)CCC1 [4-HYDROXYPHENYLRETINAMIDE] |  |  | −0.244 | 0.845 | 
13 | CCCC(=O)Nc1ncnc2c1ncn2[C@@H]1O[C@@H]2COP(=O)(O)O[C@H]2[C@H]1OC(=O)CCC [dibutyrylcyclic AMP] |  |  | −0.701 | 0.615 | 
14 | CC[C@@H]1/C=C/C=C/C[C@H](C)[C@H](O)[C@](C)(O)C(=O)[C@H](C)[C@@H](O)[C@H](C)C(=O)[C@H](C)[C@@H](O)[C@H](C)/C=C/C(=O)O[C@H]2[C@@H](C)[C@@H](CC1)O[C@@]1(CC[C@@H](C)[C@@H](C[C@H](C)O)O1)[C@@H]2C [oligomycin A, reference compound] |  |  | −1.131 | 0.457 | Fold (Table 3 summary of hits, Screen ICCB, luciferase relative to DMSO, fed three consecutive days in vials): 0.457 fold
15 | CCCCCCCCCCCCCCC[C@@H](O)[C@H](CO)NC(C)=O [C2 DIHYDROCERAMIDE] |  |  | −0.466 | 0.724 | 
16 | OC[C@H]1O[C@@H](n2cnc3cc(Cl)c(Cl)cc32)[C@H](O)[C@@H]1O [DRB] |  |  | −0.246 | 0.843 | 
17 | CN/C(=N\c1ccc(C2=NNC(=O)CC2C)cc1)NC#N (stereo not shown) [siguazodan] |  |  | −0.376 | 0.771 | 
18 | CN(CCc1ccc(Cl)c(Cl)c1)CC(O)COc1ccc(NS(C)(=O)=O)cc1 (stereo not shown) [AM 92016] |  |  | −0.341 | 0.789 | 
19 | O=C1CCc2c(ccc3ccccc23)O1 [Splitomycin] |  |  | −0.241 | 0.846 | 
20 | CCCCC/C=C\C=C\[C@@H](O)CCCCCCCC(=O)O [9(S)-HODE] |  |  | −0.398 | 0.759 | 
21 | CC[C@H](CO)Nc1nc(NCc2ccccc2)c2ncn(C(C)C)c2n1 [roscovitine] |  |  |  |  | Fold (luciferase activity, fold difference relative to DMSO controls) (in vivo): 0.659; Log2 (fold) (luciferase activity, log2 of the fold difference relative to DMSO controls) (in vivo): −0.602
